Experimental data from publication PMC11484510, “Antibacterial activity of structurally diverse natural prenylated isobavachalcone derivatives” (RSC Advances, 2024).
In brackets after ≈: the same amount, converted by molar mass. Like-named read-outs stand apart in the source and are kept apart here.

Legend:
S. aureus = test: Cell integrity analysis by PI staining; format: cell-based; conditions: 1× MIC and 2× MIC, 30 minutes, compared to the untreated cells
Procedure: Propidium iodide (PI) indicates cell integrity, emitting a red fluorescence signal. PI's polar and hydrophilic nature impedes its entrance within active bacterial cells, but within perforated dead cells, it can easily bind to nucleic acid (DNA/RNA).[32,60]S. aureus bacterial cells were incubated overnight at 37 °C and diluted further 1 : 100 in Mueller Hinton Broth (MHB). The diluted culture was grown until its OD600 reached 0.5. […] Vancomycin was used as a drug control at 1× MIC, while untreated bacterial cells were used as growth control. The samples were centrifuged at 5000 rpm speed at 4 °C temperature for 10 minutes, and the pellet was washed two times using phosphate-buffered saline pH-7.4 (PBS). To stain the sample (dead cells), 3 μL PI of 20.0 mM concentration was added to the 1 mL solution (pellet resuspended in PBS) and incubated for 15 minutes. To remove the dye, the samples were centrifuged again and washed with PBS once. The final pellet was resuspended in 1 mL of PBS, and 30 μL of each undiluted sample was used to obtain fluorescence imaging. The cells were observed under fluorescence microscopy.[61]

MRSA ATCC 15187 [1] = test: MIC, broth microdilution (CLSI), Alamar blue; format: cell-based, Methicillin-resistant S. aureus; conditions: MRSA ATCC 15187, 24 hours at 37 °C, read-out: Minimum inhibitory concentration (MIC) MRSA
Excerpt: (§1) The bacterial strains S. aureus ATCC 29213, MRSA ATCC 15187, E. coli ATCC 25922, and P. aeruginosa ATCC 27853 were obtained from ATCC (American Type Culture Collection). Cation-adjusted Mueller–Hinton broth (MHB; Becton–Dickinson, Cockeysville, MD) was used to determine the minimum inhibitory concentration (MIC). Mueller–Hinton agar (MHA; Becton–Dickinson) was used for minimum bactericidal concentration (MBC) studies. Alamar blue (Himedia) was used to detect the MIC value.
The antibacterial activity of the compounds against S. aureus ATCC 29213, MRSA ATCC 15187, E. coli ATCC 25922, and P. aeruginosa ATCC 27853 was determined through a broth microdilution method according to the guidelines of the Clinical and Laboratory Standards Institute (CLSI).[50] […] Growth control and media control were employed along with 2% DMSO as vehicle control.
In a 96-well flat bottom plate, the test compounds were two-fold serially diluted in Mueller Hinton Broth (MHB). The final concentrations of the compounds ranged from 100 to 0.08 μM. 100 μL of standardized bacterial inoculum with turbidity equivalent to 0.5 McFarland standard (1.5 × 10^8 CFU mL^−1) was diluted 1 : 100 (1.5 × 10^6 CFU mL^−1) in Mueller Hinton Broth and inoculated in the plates.[51] The plates were incubated for 24 hours at 37 °C. After incubation, 10 μL of freshly prepared Alamar blue (Himedia) was added to each well of the plate, and plates were further incubated at 37 °C for 30 minutes. After incubation, the fluorescence was measured at excitation/emission of 540–570/580–610 nm. The percentage inhibition and viability were calculated for the controls, and the Gompertz curve was utilized to estimate the minimum inhibitory concentration.

MRSA ATCC 15187 [2] = test: MBC, plating on MHA; format: cell-based, Methicillin-resistant S. aureus; conditions: Staphylococcus aureus; more than 99.9% of the cells killed; read-out: Minimum bactericidal concentration (MBC) MRSA
Excerpt: as §1
MBC is defined as the lowest concentration of the compound at which more than 99.9% of the cells were killed compared with the growth control. The minimum compound concentration at which no visible bacterial growth was observed was taken as the Minimum Bactericidal Concentration (MBC).[50]

[3] = Cell viability assay (MTT); format: cell-based, murine; conditions: mouse, RAW 264.7 macrophage cells; RAW 264.7 macrophage cell line, MTT assay
Procedure: RAW 264.7 cells were acquired from the American type culture collection (ATCC, Manassas, VA) and cultured in Dulbecco's modified eagle's medium (DMEM, Gibco, Life Technologies, NY) supplemented with 10% fetal bovine serum (FBS) at 37 °C and 5% CO2. MTT dye (Himedia) was used to detect CC50 values. The antibiotics ciprofloxacin hydrochloride monohydrate (Himedia), kanamycin sulfate (Himedia), and vancomycin (Himedia) were used for reference in microbiological assays.
The effect of compounds (IBC, IBC-2, and IBC-3) on the viability of cells was evaluated at different concentrations against macrophage cell lines through the 3-(4,5-dimethylthiazol2-yl)-2, 5-diphenyltetrazolium bromide (MTT) assay. The RAW 264.7 cells are monocyte/macrophage-like cells originating from an Abelson leukemia virus-transformed cell line derived from BALB/c mice. Due to their reliability and consistency, these cell lines are widely utilized for both in vitro and in vivo analyses.[52] The MTT assay is a colorimetric assay used to measure the viability and cytotoxicity of cells. The cells (2 × 10^4 cells per well) were grown at 37 °C with 5% CO2 for 48 hours, then exposed to compounds with different concentrations. […] After 20–21 hours, 20 μL of MTT dye at 2.5 mg mL^−1 concentration was added to each well and incubated for 4 hours. 100 μL DMSO solubilized the water-insoluble purple and white formazan produced.[53] The formation of the formazan salt by mitochondrial dehydrogenases was measured at 570.0 nm after incubating for 20 min. The percentage cytotoxicity was calculated with respect to the untreated cells, and the CC50 value was calculated. CC50 was defined as the concentration of an inhibitor that reduces cellular activities by 50% compared to untreated control cultures. The CC50 values were calculated as the concentration where the absorbance was reduced by 50% using GraphPad Prism software.[54] The selectivity index (SI) determines the safety profile of the compound. It is calculated as the ratio of compound concentration at which 50% of cell growth is inhibited compared to untreated cells (CC50) to the effective inhibiting concentration against bacterial strain (MIC). The high SI (>10 fold of MIC) of a drug is proven to have a favorable safety profile.[28] Selectivity index (SI) = CC50 of the compound (μM)/MIC of the compound (μM).

For `CC(C)=CCc1c(O)ccc2c1O/C(=C\c1ccc(O)cc1)C2=O` [IBC-3, (Z)-6-hydroxy-2-(4-hydroxybenzylidene)-7-(3-methylbut-2-en-1-yl)benzofuran-3(2H)-one], the “PI red fluorescence (cell integrity)” value (S. aureus) was “notably increased intensity of red fluorescence”, the MIC (MRSA ATCC 15187 [1]) was 6 µM (≈ 1.93 µg/mL) and the MIC (MRSA ATCC 15187 [1]; Staphylococcus aureus) was 6 µM (≈ 1.93 µg/mL). It also gave an MBC (MRSA ATCC 15187 [2]) of 25 µM (≈ 8.06 µg/mL) and a CC50 [3] of 50 µM.
